Legend:
[1] = biological target: smooth muscle angiotensin II receptor; test: Assay A: Angiotensin II Binding Activity (125I-AII displacement, rat uterine membrane preparation); details: 50% displacement of specifically bound 125I-AII, rat uterine membranes, 25° C., 60 min
Method: Compounds of the invention were tested for ability to bind to the smooth muscle angiotensin II receptor using a rat uterine membrane preparation. […] Other chemicals were obtained from Sigma Chemical Co. This assay was carried out according to the method of Douglas et al [Endocrinology, 106, 120-124 (1980)]. Rat uterine membranes were prepared from fresh tissue. All procedures were carried out at 4° C. Uteri were stripped of fat and homogenized in phosphate-buffered saline at pH 7.4 containing 5 mM EDTA. The homogenate was centrifuged at 1500×g for 20 min., and the supernatant was recentrifuged at 100,000×g for 60 min. The pellet was resuspended in buffer consisting of 2 mM EDTA and 50 mM Tris-HCl (pH 7.5) to a final protein concentration of 4 mg/ml. […] The reaction was initiated by the addition of membrane protein and the mixture was incubated at 25° C. for 60 min. The incubation was terminated with ice-cold 50 mM Tris-HCl (pH 7.5) and the mixture was filtered to separate membrane-bound labelled peptide from the free ligand. The incubation tube and filter were washed with ice-cold buffer. Filters were assayed for radioactivity in a Micromedic gamma counter. Nonspecific binding was defined as binding in the presence of 10 μM of unlabelled AII. Specific binding was calculated as total binding minus nonspecific binding.
Binding data were analyzed by a nonlinear least-squares curve fitting program.

pressor response to AII = test: Assay C: In Vivo Intragastric Pressor Assay Response for AII Antagonists; details: rat, 3 mg/kg intragastric (i.g.); for Assay C Duration: duration of inhibition of AII pressor response, measured up to 180 min; for Assay C Inhibition (%): inhibition of pressor response to 30 ng/kg AII bolus
Method: Male Sprague-Dawley rats weighing 225-300 grams were anesthetized with methohexital (30 mg/kg, i.p.) and catheters were implanted into the femoral artery and vein. The catheters were tunneled subcutaneously to exit dorsally, posterior to the head and between the scapulae. The catheters were filled with heparin (1000 units/ml of saline). The rats were returned to their cage and allowed regular rat chow and water ad libitum. After full recovery from surgery (3-4 days), rats were placed in Lucite holders and the arterial line was connected to a pressure transducer. Arterial pressure was recorded on a Gould polygraph (mmHg). Angiotensin II was administered as a 30 ng/kg bolus via the venous catheter delivered in a 50 μl volume with a 0.2 ml saline flush. The pressor response in mm Hg was measured by the difference from pre-injection arterial pressure to the maximum pressure achieved. The AII injection was repeated every 10 minutes until three consecutive injections yielded responses within 4 mmHg of each other. These three responses were then averaged and represented the control response to AII. The test compound was suspended in 0.5% methylcellulose in water and was administered by gavage. The volume administered was 2 ml/kg body weight. The standard dose was 3 mg/kg. Angiotensin II bolus injections were given at 30, 45, 60, 75, 120, 150, and 180 minutes after gavage. The pressor response to AII was measured at each time point. The rats were then returned to their cage for future testing. A minimum of 3 days was allowed between tests. Percent inhibition was calculated for each time point following gavage by the following formula: [(Control Response—Response at time point)/Control Response] ×100.

rabbit aortic rings = test: Assay B: In Vitro Vascular Smooth Muscle Response for AII; assay type: cell-based; design: key: NC = Non-competitive Antagonist; details: AII contraction
Method: The compounds of the invention were tested for antagonist activity in rabbit aortic rings. Male New Zealand white rabbits (2-2.5 kg) were sacrificed using an overdose of pentobarbital and exsanguinated via the carotid arteries. The thoracic aorta was removed, cleaned of adherent fat and connective tissue and then cut into 3-mm ring segments. The endothelium was removed from the rings by gently sliding a rolled-up piece of filter paper into the vessel lumen. The rings were then mounted in a water-jacketed tissue bath, maintained at 37° C., between moveable and fixed ends of a stainless steel wire with the moveable end attached to an FT03 Grass transducer coupled to a Model 7D Grass Polygraph for recording isometric force responses. The bath was filled with 20 ml of oxygenated (95% oxygen/5% carbon dioxide) Krebs solution of the following composition (mM): […], 1.2 NaH2P04, 1.2 MgS04, 2.5 CaCl2, and 11.4 glucose. The preparations were equilibrated for one hour before approximately one gram of passive tension was placed on the rings. Angiotensin II concentration-response curves were then recorded (3×10^−10 to 1×10^−5 M). […] The effectiveness of the test compound was expressed in terms of pA2 values and were calculated according to H. O. Schild [Br. J. Pharmacol. Chemother., 2,189-206 (1947)]. […] Each test antagonist was evaluated in aorta rings from two rabbits.

SMILES	IC50 [1] [µM]	melting point	Assay C Duration (pressor response to AII) [min]	Assay C Inhibition (%) (pressor response to AII)	Assay B pA2: type of antagonism (rabbit aortic rings)
CCCCc1cn(-c2c(C)cc(C)cc2C)c(=O)n1Cc1ccc(-c2ccccc2-c2nnn[nH]2)cc1 [Example 8, 1-(2,4,6-trimethylphenyl)-4-butyl-1,3-dihydro-3-[2′-(1H-tetrazol-5-yl)[1,1′-biphenyl]-4-ylmethyl]-2H -imidazol-2-one]	0.03	187 to 188 °C (dec.)	> 180	50%	–
CCCCc1cn(-c2ccccc2C(C)C)c(=O)n1Cc1ccc(-c2ccccc2-c2nnn[nH]2)cc1 [Example 2, 1-(2-isopropylphenyl)-4-butyl-1,3-dihydro-3-[2′-(1H -tetrazol-5-yl)[1,1′-biphenyl]-4-ylmethyl]-2H-imidazol-2-one]	0.097	167 to 168 °C	> 180	70%	NC
CCCCc1cn(-c2c(C(C)C)cccc2C(C)C)c(=O)n1Cc1ccc(-c2ccccc2-c2nnn[nH]2)cc1 [Example 7, 1-(2,6-diisopropylphenyl)-4-butyl-1,3-dihydro-3-[2′-(1H-tetrazol-5-yl)[1,1′-biphenyl]-4-ylmethyl]-2H -imidazol-2-one]	0.19	202 to 203 °C (dec.)	–	–	–
CCCCc1cn(-c2c(CC)cccc2CC)c(=O)n1Cc1ccc(-c2ccccc2-c2nnn[nH]2)cc1 [Example 6, 1-(2,6-diethylphenyl) -4-butyl-1,3-dihydro-3-[2′-(1H -tetrazol-5-yl) [1,1′-biphenyl]-4-ylmethyl]-2H-imidazol-2-one]	0.033	198 to 200 °C (dec.)	–	<20%	–
CCCCc1cn(-c2c(OC)cccc2OC)c(=O)n1Cc1ccc(-c2ccccc2-c2nnn[nH]2)cc1 [Example 3, 1-(2,6-dimethoxyphenyl)-4-butyl-1,3-dihydro-3-[2′-(1H -tetrazol-5-yl)[1,1′-biphenyl]-4-ylmethyl]-2H-imidazol-2-one]	0.0098	189 to 191 °C (dec.)	> 180	25%	–
CCCCc1cn(-c2c(C)cccc2C)c(=O)n1Cc1ccc(-c2ccccc2-c2nnn[nH]2)cc1 [Example 5, 1-(2,6-dimethylphenyl)-4-butyl-1,3-dihydro-3-[2′-(1H-tetrazol-5-yl)[1,1′-biphenyl]-4-ylmethyl]-2H -imidazol-2-one]	0.0063	177 to 178 °C (dec.)	> 180	40%	–
CCCCc1cn(-c2ccccc2CC)c(=O)n1Cc1ccc(-c2ccccc2-c2nnn[nH]2)cc1 [Example 1, 1-(2-ethylphenyl)-4-butyl-1,3-dihydro-3-[2′-(1H-tetrazol-5-yl)[1,1′-biphenyl]-4-ylmethyl]-2H-imidazol-2-one]	0.014	188 to 189 °C	–	20%/—	NC
CCCCc1cn(-c2c(C)cc(C(C)(C)C)cc2C)c(=O)n1Cc1ccc(-c2ccccc2-c2nnn[nH]2)cc1 [Example 9, 1-(2,6-dimethyl-4-tertbutylphenyl) -4-butyl-1,3-dihydro-3-[2′-(1H-tetrazol-5-yl)[1,1′-biphenyl]-4-ylmethyl]-2H -imidazol-2-one]	0.27	134 to 135 °C	–	–	–
CCCCc1cn(-c2c(C)cccc2Cl)c(=O)n1Cc1ccc(-c2ccccc2-c2nnn[nH]2)cc1 [Example 4, 1-(2-chloro-6-methylphenyl) -4-butyl-1,3-dihydro-3-[2′-(1H-tetrazol-5-yl) [1,1′-biphenyl]-4-ylmethyl]-2H -imidazol-2-one]	0.013	163 to 164 °C	> 180	35%	–
